Assay [1] concerns the target T1, Adenosine receptor A1 (Homo sapiens, UniProt P30542).
T1 sequence (P30542 whole entry): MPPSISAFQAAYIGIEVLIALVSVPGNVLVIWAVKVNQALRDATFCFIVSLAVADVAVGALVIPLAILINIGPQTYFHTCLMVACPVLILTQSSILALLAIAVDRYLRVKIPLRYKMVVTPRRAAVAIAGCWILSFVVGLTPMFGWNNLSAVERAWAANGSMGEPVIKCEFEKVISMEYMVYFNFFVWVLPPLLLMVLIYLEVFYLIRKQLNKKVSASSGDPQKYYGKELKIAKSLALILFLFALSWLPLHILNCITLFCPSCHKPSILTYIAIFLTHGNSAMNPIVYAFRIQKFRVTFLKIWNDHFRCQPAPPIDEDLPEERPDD
The experiment in a line: Displacement of [3H]R-PIA from recombinant human A1 adenosine receptor expressed in CHO cell membrane incubated for 60 mins by liquid scintillation counting method. The assay is classed as cell membranes. For orientation: In a radioligand displacement assay an active substance lowers the binding of a labelled ligand.

The target of assay [2] is Adenosine receptor A2a (Homo sapiens, UniProt P29274). Put plainly: Displacement of [3H]CGS21680 from recombinant human A2A adenosine receptor expressed in HEK293 cells incubated for 60 mins by liquid scintillation counting method. Format: cell-based.
Adenosine receptor A2a, sequence (P29274 whole entry): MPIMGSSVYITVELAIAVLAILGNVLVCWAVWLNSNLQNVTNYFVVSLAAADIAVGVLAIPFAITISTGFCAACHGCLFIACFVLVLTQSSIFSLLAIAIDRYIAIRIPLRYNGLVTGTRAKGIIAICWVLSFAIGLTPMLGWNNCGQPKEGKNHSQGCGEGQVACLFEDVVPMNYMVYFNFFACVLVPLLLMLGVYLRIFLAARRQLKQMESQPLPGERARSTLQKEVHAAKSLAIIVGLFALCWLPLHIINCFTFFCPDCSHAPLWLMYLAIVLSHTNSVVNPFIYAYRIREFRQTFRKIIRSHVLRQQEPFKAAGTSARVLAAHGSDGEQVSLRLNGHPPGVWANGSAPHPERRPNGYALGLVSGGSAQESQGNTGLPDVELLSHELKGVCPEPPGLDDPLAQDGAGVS
Assay [3] addresses T2, Adenosine receptor A3 (Homo sapiens, UniProt P0DMS8).
T2 sequence (P0DMS8 whole entry): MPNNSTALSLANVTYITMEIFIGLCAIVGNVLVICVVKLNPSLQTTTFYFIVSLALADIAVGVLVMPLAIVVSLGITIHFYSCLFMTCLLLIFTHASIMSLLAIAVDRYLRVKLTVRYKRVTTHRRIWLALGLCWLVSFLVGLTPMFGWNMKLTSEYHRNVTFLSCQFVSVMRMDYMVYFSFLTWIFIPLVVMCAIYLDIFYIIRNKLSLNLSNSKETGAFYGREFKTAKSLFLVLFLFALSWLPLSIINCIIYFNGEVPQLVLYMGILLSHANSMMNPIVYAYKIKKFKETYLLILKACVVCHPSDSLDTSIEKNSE
Put plainly: Displacement of [125I]AB-MECA from human A3 adenosine receptor expressed in CHO cell membrane incubated for 60 mins by gamma counter method. The assay is classed as cell membranes.

These results are taken from ChEMBL document CHEMBL5030536, “Subtle Chemical Changes Cross the Boundary between Agonist and Antagonist: New A3 Adenosine Receptor Homology Models and Structural Network Analysis Can Predict This Boundary” (J Med Chem, 2021).

As usually defined, the Ki is the equilibrium dissociation constant of an inhibitor or competing ligand from its target.

On to `N[C@@H]1CS[C@@H](n2cnc3c(NCc4cccc(I)c4)ncnc32)[C@@H]1O`, for which the Ki in assay [1] is 2450 nM; in assay [2] it was 2300 nM; in assay [3], 260 nM.

Take `CNc1ncnc2c1ncn2[C@@H]1SC[C@@H](N)[C@H]1O`: the Ki in assay [1] stood at 1670 nM.

For `N[C@@H]1CS[C@@H](n2cnc3c(NCc4cccc(I)c4)nc(Cl)nc32)[C@@H]1O`, the Ki in assay [1] stood at 2200 nM; in assay [2], 2390 nM; in assay [3], 380 nM.
